# Molecular target: T1, recombinant autotaxin (Homo sapiens, UniProt Q13822)
# T1 construct: made in house; host or cells: Hi5 insect cells (baculovirus)
# Assay: Autotaxin test (enzyme test), Amplex Red fluorescence
# Assay type: biochemical
# Conditions: LPC 75 μM; for IC50: IC50 ranges, read-out: Autotaxin inhibition IC50; for % (ctrl 3E−5M): at 3E−5M
# Experimental: The autotaxin activity is measured indirectly using Amplex Red reagent. Amplex Red is measured here as fluorogenic indicator for the H2O2 formed. In detail, autotaxin converts the substrate lysophosphatidylcholine (LPC) into phosphocholine and lysophosphatidylic acid (LPA). After this reaction, the phosphocholine is reacted with alkaline phosphatase to give inorganic phosphate and choline. In the next step, choline is oxidised by choline oxidase to give betaine, with formation of H2O2. H2O2 reacts with Amplex Red reagent in the presence of peroxidase (horseradish peroxidase) in a 1:1 stoichiometry and forms the highly fluorescent resorufin. The fluorescence is measured in a reaction-dependent kinetic mode in order that fluorescent signals from possible other fluorescent substances which are not involved in the reaction can be corrected out.
# 1.5 μl of a standard solution or of the test substances (compounds of the invention) in individual concentrations dissolved in 20 mM Hepes pH 7.2 with a maximum of 7.7% of DMSO are pre-incubated together with 10 μl (16 ng) of highly purified recombinant autotaxin in a black microtitre plate provided with 384 wells at 22° C. for 30 min. The reaction is then initiated by addition of 5 μl of L-α-lysophosphatidylcholine (LPC), where the final concentration of LPC is 75 μM. The mixture is incubated at 37° C. for 90 min. After the incubation, Amplex Red reagent, peroxidase (horseradish peroxidase) and choline oxidase is added, and the fluorescence is immediately measured at 612 nm with excitation of 485 nm in a “Tecan Ultra multimode” reader. The activity of autotaxin is calculated indirectly via detection of the H2O2 formed.
# • Microtitre plate: PS microplate, 384 wells, small volume, black Corning, Cat#3677 • Protein: recombinant autotaxin (Baculovirale Hi5 Expression) • Substrate: L-a-lysophosphatidylcholine (chicken egg)); Avanti Polar Lipids #830071 P • Standard: C14 LPA, Avanti Polar Lipids, Cat#857120P • Detection reagent: Amplex Red reagent; Invitrogen #A12222; dissolved in 1.923 ml of DMSO peroxidase type VI-A (horseradish) from Sigma #P6782; dissolved in 7.45 ml of test buffer, choline oxidase; Sigma #C5896; dissolved in 2.47 ml of test buffer • Detection reagent mix: 1:100 dilution of Amplex Red Reagenzt in test buffer • Test buffer: 200 mM Tris HCl, Merck, Cat #1.08219, pH 7.9, 0.1% BSA, lipid-free, Roche Cat#775835 Pharmacological Data Autotaxin Inhibition
Structure (SMILES),IC50 [nM],% (ctrl 3E−5M) [%]
"COc1ccc(Cl)cc1NC(=O)CN1CCc2nc3ccccc3c(NCC(=O)NC3CCCCC3)c2C1 [Compound 15, N-(5-Chloro-2-methoxyphenyl)-2-[10-(cyclohexyl-carbamoylmethylamino)-3,4-dihydro-1H-benzo[b]-1,6-naphthyridin-2-yl]acetamide]",> 1000,–
"COc1ccc(Cl)cc1NC(=O)CN1CCc2nc3ccccc3c(NCC(=O)N3CCN(Cc4ccccc4)CC3)c2C1 [Compound 19, 2-{10-[2-(4-Benzylpiperazin-1-yl)-2-oxoethylamino]-3,4-dihydro-1H-benzo[b]-1,6-naphthyridin-2-yl}-N-(5-chloro-2-methoxyphenyl)acetamide]",100 to 1000,–
"COc1ccc(Cl)cc1NC(=O)CN1CCc2nc3ccccc3c(NCC(=O)N3CCN(C)CC3)c2C1 [Compound 16, N-(5-Chloro-2-methoxyphenyl)-2-{10-[2-(4-methyl-piperazin-1-yl)-2-oxoethylamino]-3,4-dihydro-1H-benzo-[b]-1,6-naphthyridin-2-yl}acetamide]",100 to 1000,–
"COc1ccc(Cl)cc1NC(=O)CN1CCc2nc3ccccc3c(Nc3ccccn3)c2C1 [Compound 23, N-(5-Chloro-2-methoxyphenyl)-2-[10-(pyridin-2-ylamino)-3,4-dihydro-1H-benzo[b]-1,6-naphthyridin-2-yl]acetamide]",> 1000,–
"COc1ccc(Cl)cc1NC(=O)CN1CCc2nc3ccccc3c(NCCO)c2C1 [Compound 4, N-(5-Chloro-2-methoxyphenyl)-2-[10-(2-hydroxy-ethylamino)-3,4-dihydro-1H-benzo[b]-1,6-naphthyridin-2-yl]acetamide]",100 to 1000,–
"COc1ccc(Cl)cc1NC(=O)CN1CCc2nc3ccccc3c(NCC(=O)N(C)C)c2C1 [Compound 9, N-(5-Chloro-2-methoxyphenyl)-2-[10-(dimethyl-carbamoylmethylamino)-3,4-dihydro-1H-benzo[b]-1,6-naphthyridin-2-yl]acetamide]",100 to 1000,–
"COc1ccc(Cl)cc1NC(=O)COC(=O)N1CCc2nc3ccccc3c(NCCO)c2C1 [Compound 7, 10-(2-Hydroxyethylamino)-3,4-dihydro-1H-benzo[b]-1,6-naphthyridine-2-carboxylic acid (5-chloro-2-methoxy-phenylcarbamoyl)methyl ester]",> 1000,–
"COc1ccc(Cl)cc1NC(=O)CN1CCc2nc3ccccc3c(NCC(=O)N3CCCC3)c2C1 [Compound 12, N-(5-Chloro-2-methoxyphenyl)-2-[10-(2-oxo-2-pyrrolidin-1-ylethylamino)-3,4-dihydro-1H-benzo[b]-1,6-naphthyridin-2-yl]acetamide]",100 to 1000,–
"COc1ccc(Cl)cc1NC(=O)CN1CCc2nc3ccccc3c(NCC(=O)N3CCN(C(C)C)CC3)c2C1 [Compound 17, N-(5-Chloro-2-methoxyphenyl)-2-{10-[2-(4-isopropyl-piperazin-1-yl)-2-oxoethylamino]-3,4-dihydro-1H-benzo-[b]-1,6-naphthyridin-2-yl}acetamide]",100 to 1000,–
"COc1ccc(Cl)cc1NC(=O)CN1CCc2nc3ccccc3c(Nc3ccncc3)c2C1 [Compound 20, N-(5-Chloro-2-methoxyphenyl)-2-[10-(pyridin-4-ylamino)-3,4-dihydro-1H-benzo[b]-1,6-naphthyridin-2-yl]acetamide]",> 1000,–
"COc1ccc(Nc2c3c(nc4ccccc24)CCN(CC(=O)Nc2cc(Cl)ccc2OC)C3)cc1 [Compound 24, N-(5-Chloro-2-methoxyphenyl)-2-[10-(4-methoxy-phenylamino)-3,4-dihydro-1H-benzo[b]-1,6-naphthyridin-2-yl]acetamide]",> 1000,–
"COc1ccc(Cl)cc1NC(=O)CN1CCc2nc3ccccc3c(N3CCN(CCO)CC3)c2C1 [Compound 10, N-(5-Chloro-2-methoxyphenyl)-2-{10-[4-(2-hydroxyethyl)-piperazin-1-yl]-3,4-dihydro-1H-benzo[b]-1,6-naphthyridin-2-yl}acetamide]",100 to 1000,–
"COc1ccc(Cl)cc1NC(=O)CN1CCc2nc3ccccc3c(NCCN(C)C)c2C1 [Compound 5, N-(5-Chloro-2-methoxyphenyl)-2-[10-(2-dimethylamino-ethylamino)-3,4-dihydro-1H-benzo[b]-1,6-naphthyridin-2-yl]acetamide]",100 to 1000,–
"CCN(CC)C(=O)CNc1c2c(nc3ccccc13)CCN(CC(=O)Nc1cc(Cl)ccc1OC)C2 [Compound 18, N-(5-Chloro-2-methoxyphenyl)-2-[10-(diethyl-carbamoylmethylamino)-3,4-dihydro-1H-benzo[b]-1,6-naphthyridin-2-yl]acetamide]",100 to 1000,–
"Nc1c2c(nc3ccccc13)CCN(CC(=O)Nc1cc(Cl)ccc1Cl)C2 [Compound 3, 2-(10-Amino-3,4-dihydro-1H-benzo[b]-1,6-naphthyridin-2-yl)-N-(2,5-dichlorophenyl)acetamide]",–,79
"COc1ccc(Cl)cc1NC(=O)CN1CCc2nc3ccccc3c(NCc3nc4ccccc4[nH]3)c2C1 [Compound 11, 2-{10-[(1H-Benzimidazol-2-ylmethyl)amino]-3,4-dihydro-1H-benzo[b]-1,6-naphthyridin-2-yl}-N-(5-chloro-2-methoxyphenyl)acetamide]",> 1000,–
"COc1ccc(Cl)cc1NC(=O)COC(=O)N1CCc2nc3ccccc3c(NCCN(C)C)c2C1 [Compound 6, 10-(2-Dimethylaminoethylamino)-3,4-dihydro-1H-benzo[b]-1,6-naphthyridine-2-carboxylic acid (5-chloro-2-methoxyphenylcarbamoyl)methyl ester]",–,−9
"COc1ccc(Cl)cc1NC(=O)CN1CCc2nc3ccccc3c(Nc3cccnc3)c2C1 [Compound 21, N-(5-Chloro-2-methoxyphenyl)-2-[10-(pyridin-3-ylamino)-3,4-dihydro-1H-benzo[b]-1,6-naphthyridin-2-yl]acetamide]",> 1000,–
"COc1ccc(Cl)cc1NC(=O)CN1CCc2nc3ccccc3c(NC3CCN(C)CC3)c2C1 [Compound 1, N-(5-Chloro-2-methoxyphenyl)-2-[10-(1-methylpiperidin-4-ylamino)-3,4-dihydro-1H-benzo[b]-1,6-naphthyridin-2-yl]acetamide]",100 to 1000,–
"COc1ccc(Cl)cc1NC(=O)CN1CCc2nc3ccccc3c(NCC(=O)N3CCOCC3)c2C1 [Compound 14, N-(5-Chloro-2-methoxyphenyl)-2-[10-(2-morpholin-4-yl-2-oxoethylamino)-3,4-dihydro-1H-benzo[b]-1,6-naphthyridin-2-yl]acetamide]",100 to 1000,–
"COc1ccc(Cl)cc1NC(=O)CN1CCc2nc3ccccc3c(Nc3ccccc3)c2C1 [Compound 22, N-(5-Chloro-2-methoxyphenyl)-2-(10-phenylamino-3,4-dihydro-1H-benzo[b]-1,6-naphthyridin-2-yl)acetamide]",> 1000,–
"COc1ccc(Cl)cc1NC(=O)CN1CCc2nc3ccccc3c(NCC(=O)N3CCCCC3)c2C1 [Compound 13, N-(5-Chloro-2-methoxyphenyl)-2-[10-(2-oxo-2-piperidin-1-ylethylamino)-3,4-dihydro-1H-benzo[b]-1,6-naphthyridin-2-yl]acetamide]",100 to 1000,–
"COc1ccc(Cl)cc1NC(=O)CN1CCc2nc3ccccc3c(N)c2C1 [Compound 2, 2-(10-Amino-3,4-dihydro-1H-benzo[b]-1,6-naphthyridin-2-yl)-N-(5-chloro-2-methoxyphenyl)acetamide]",> 1000,–
"CNC(=O)CNc1c2c(nc3ccccc13)CCN(CC(=O)Nc1cc(Cl)ccc1OC)C2 [Compound 8, N-(5-Chloro-2-methoxyphenyl)-2-[10-(methyl-carbamoylmethylamino)-3,4-dihydro-1H-benzo[b]-1,6-naphthyridin-2-yl]acetamide]",100 to 1000,–

# From patent US9029387B2, “Benzonaphthyridinamines as autotaxin inhibitors” (Merck Patent GmbH, priority 2010, dated 2015)
